Earlier results, collected in US20110313027A1, “METHODS AND SUBSTANCES FOR STIMULATING MUSCLE REGENERATION” (priority 2008, published 2011).

System: SERCAs
Conditions: cultured muscle cells

C/C=C(/C)C(=O)O[C@H]1C(C)=C2[C@H]([C@@H]1OC(=O)CCCCCCC)[C@@](C)(OC(C)=O)C[C@H](OC(=O)CCC)[C@@]1(O)[C@H]2OC(=O)[C@@]1(C)O [thapsigargin]
activity of an NFAT reporter construct: increased the activity | myotube growth and differentiation: decreases myotube growth and differentiation
